The test system of the assay is triple-negative breast tumors. The assay is described as follows: clinical trial of Cisplatin treatment of patients with triple-negative breast tumors (GSE28330). It is filed as in vivo, human. The conditions noted are these: number of patients. On the procedure:
Two publically available data sets from clinical trial of Cisplatin treatment of patients with triple-negative breast tumors [GSE28330 GEO database][59] were processed and the number of LST_10 Mb was calculated for each tumor with good quality of measured profile. Genomic profiles were measured by two types of chip: Affymetrix Oncoscan 70K (Dataset 2) and Oncoscan 300K (Dataset 1). Information about mutational status of BRCA1/2 was available for some tumors. Response to treatment was measured by Miller-Payne score, where 4 and 5 were considered as “positive response”, while scores<4 were considered as “no response” Case by case and summary results are presented in Table 2 and Tables 3-5 (statistical comparisons were performed by the Fisher exact test).

Turning to `N.N.[Cl][Pt][Cl]` [Cisplatin, cisplatin], the “Non Responders” value is, setting by setting: (BRCA1/2 inactivated tumors) 8; (LST_high tumors (LST_10 Mb)) 15; (LST_low tumors (LST_10 Mb)) 20; (NON BRCA1/2 or NA tumors) 27. The same compound showed a Responders (BRCA1/2 inactivated tumors) of 9, a Responders (LST_high tumors (LST_10 Mb)) of 18, a Responders (LST_low tumors (LST_10 Mb)) of 1 and a Responders (NON BRCA1/2 or NA tumors) of 10.

These data come from US20240247318A1, “METHODS FOR DETECTING INACTIVATION OF THE HOMOLOGOUS REC[…] (BRCA1/2) IN HUMAN TUMORS” (Institute Curie, priority 2012, published 2024).
